Measured values: US7381729B2, “4-(4-trans-hydroxycyclohexyl)amino-2-phenyl-7H-pyrrolo [2,3D] pyrimidine hydrogen mesylate, its polymorphic forms, and methods for making same” (Solvay Pharmaceuticals B.V., priority 2003, dated 2008)
In brackets after ≈: the same amount, converted by molar mass. One block for each compound: values may come before it.

How the values were obtained:
[1] = Solubility in gastrointestinal fluids; assay type: physicochemical
[2] = Solubility by shake flask method (OECD guideline No. 105) in purified water; settings: 25° C.
Method: Solubility measurements were carried out with the shake flask method according to the OECD guideline at 25° C.

[3] = Relative stability of the polymorphic forms; assay type: physicochemical; settings: form α versus form β
[4] = Stability at ambient conditions; assay type: physicochemical

solubility in gastrointestinal fluids (in words) [1]: low solubility
Solubility [2]: 5.9 ng/mL (≈ 0.0191 µM)
SMILES: O[C@H]1CC[C@H](Nc2nc(-c3ccccc3)nc3[nH]ccc23)CC1 [Base, 4-(4-trans-hydroxy-cyclohexyl)amino-2-phenyl-7H-pyrrolo[2,3d]pyrimidine]

polymorphic stability (in words) [3]: metastable with respect to form β
SMILES: CS(=O)(=O)O.OC1CCC(Nc2nc(-c3ccccc3)nc3[nH]ccc23)CC1 (stereo not drawn) [Polymorph α, 4-(4-trans-hydroxy-cyclohexyl)amino-2-phenyl-7H-pyrrolo[2,3d]pyrimidine mesylate]

polymorphic stability (in words) [3]: stable form
SMILES: CS(=O)(=O)O.OC1CCC(Nc2nc(-c3ccccc3)nc3[nH]ccc23)CC1 (stereo not drawn) [Polymorph β, 4-(4-trans-hydroxy-cyclohexyl)amino-2-phenyl-7H-pyrrolo[2,3d]pyrimidine mesylate]

stability at ambient conditions (in words) [4]: very stable
SMILES: CS(=O)(=O)O.OC1CCC(Nc2nc(-c3ccccc3)nc3[nH]ccc23)CC1 (stereo not drawn) [mesylate salt, 4-(4-trans-hydroxy-cyclohexyl)amino-2-phenyl-7H-pyrrolo[2,3d]-pyrimidine mesylate]
